Where two headings read alike, the source gives them in different places.
How the values were obtained:
[1] = after ingestion; cited from earlier work
[2] = tested on: transverse aortic constricted α2C−/−mice
Procedure: This example tests whether treatment of α2C−/−knockout transgenic mice with the partial α2A agonist, clonidine, improves cardiac function and reduces ventricular hypertrophy after left ventricular pressure overload. In other words, the example tests whether clonidine-mediated activation of α2A-receptors compensates for the loss of functional α2C. The mice used in this experiment are described in more detail in Brede et al., Circulation 106, 2491-2496 (2002). […] Mice were treated with 200 μg/kg/day clonidine or vehicle for four weeks. Three mice were treated with clonidine and three with vehicle in the initial experiment.

[3] = cited from earlier work
[4] = cited from earlier work; remark: listed apart in the source
[5] = initial experiment, 200 μg/kg/day for four weeks, three mice clonidine, three vehicle, FIG. 1
[6] = second experiment, 200 μg/kg/day for 4 weeks via osmotic minipumps, n=5 clonidine, n=6 vehicle

## Clc1cccc(Cl)c1NC1=NCCN1 [clonidine, N-(2,6-dichlorophenyl)-4,5-dihydro-1 H-imidazol-2-amine]
[1]
  onset of antihypertensive effects: 30 to 60 min
[2]; FIGS. 1 and 2
  hypertrophy: prevents and reduces
  left ventricular systolic pressures: slightly reduced
  ventricular contractility: maintained
[2]; [5]
  contractility of the heart: did not effect
  left ventricular systolic pressure: reduced
  ventricular hypertrophy: reduced
[2]; [6]
  contractility of the heart: did not effect
  left ventricular systolic pressure: reduced
  ventricular hypertrophy: reduced
[3]; therapeutic doses typically used (0.2-0.9 mg/day)
  side effects: dryness of the mouth, dizziness, sedation, and constipation
[3]; toxic doses, children and adults
  toxic effects: serious cardiopulmonary instability and central nervous system depression
[4]; after a single oral dose
  time to peak plasma concentrations: 3 to 5 h
[4]; because of lipid solubility
  CNS penetration: excellent
[4]; dermal application
  time to steady state levels: several days
[4]; in vivo
  absorption from the gastrointestinal tract: rapidly absorbed
  elimination: excreted unchanged in the urine and metabolized by the liver

Source: US20060211684A1, “Use of alpha-2 adrenergic receptor agonists” (Perlegen Sciences, Inc., priority 2005, published 2006)
